Measurements taken from US9790178B2, “Pyrrolidinyl urea, thiourea, guanidine and cyanoguanidine compounds as TrkA kinase inhibitors” (Array BioPharma Inc., priority 2012, dated 2017).

What was measured:
Experiment in all cases: KinaseProfiler off-target kinase profiling
Assay type in all cases: biochemical
Details in all cases: 10 μM, ATP near Km
[1] = target: T1, Abl (Homo sapiens, UniProt P00519)
T1 construct: purchased Millipore, Inc. (KinaseProfiler service)
Procedure, shortened: (§1)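 10 μM test compound; [ATP] near Km for each enzyme; duplicate determinations; output = average % of control.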

[2] = target: T2, CAMK4 (Homo sapiens, UniProt Q16566)
T2 construct: purchased Millipore, Inc. (KinaseProfiler service)
Procedure, shortened: as §1

[3] = target: T3, CDK9/cyclinT1 (Homo sapiens, UniProt P50750)
T3 construct: purchased Millipore, Inc. (KinaseProfiler service)
Procedure, shortened: as §1

[4] = target: T4, CHK2 (Homo sapiens, UniProt O96017)
T4 construct: purchased Millipore, Inc. (KinaseProfiler service)
Procedure, shortened: as §1

[5] = target: T5, CK1gamma1 (Homo sapiens, UniProt Q9HCP0)
T5 construct: purchased Millipore, Inc. (KinaseProfiler service)
Procedure, shortened: as §1

[6] = target: T6, CK2 (Homo sapiens, UniProt P68400)
T6 construct: purchased Millipore, Inc. (KinaseProfiler service)
Procedure, shortened: as §1

[7] = target: T7, CK2alpha2 (Homo sapiens, UniProt P19784)
T7 construct: purchased Millipore, Inc. (KinaseProfiler service)
Procedure, shortened: as §1

[8] = target: T8, DMPK (Homo sapiens, UniProt Q09013)
T8 construct: purchased Millipore, Inc. (KinaseProfiler service)
Procedure, shortened: as §1

[9] = target: T9, EphA2 (Homo sapiens, UniProt P29317)
T9 construct: purchased Millipore, Inc. (KinaseProfiler service)
Procedure, shortened: as §1

[10] = target: T10, EphA5 (Homo sapiens, UniProt P54756)
T10 construct: purchased Millipore, Inc. (KinaseProfiler service)
Procedure, shortened: as §1

[11] = target: T11, EphB1 (Homo sapiens, UniProt P54762)
T11 construct: purchased Millipore, Inc. (KinaseProfiler service)
Procedure, shortened: as §1

[12] = target: T12, EphB3 (Homo sapiens, UniProt P54753)
T12 construct: purchased Millipore, Inc. (KinaseProfiler service)
Procedure, shortened: as §1

[13] = target: T13, ErbB4 (Homo sapiens, UniProt Q15303)
T13 construct: purchased Millipore, Inc. (KinaseProfiler service)
Procedure, shortened: as §1

[14] = target: T14, FGFR3 (Homo sapiens, UniProt P22607)
T14 construct: purchased Millipore, Inc. (KinaseProfiler service)
Procedure, shortened: as §1

[15] = target: T15, Flt4 (Homo sapiens, UniProt P35916)
T15 construct: purchased Millipore, Inc. (KinaseProfiler service)
Procedure, shortened: as §1

[16] = target: T16, GSK3alpha (Homo sapiens, UniProt P49840)
T16 construct: purchased Millipore, Inc. (KinaseProfiler service)
Procedure, shortened: as §1

[17] = target: T17, IGF-1R Activated (Homo sapiens, UniProt P08069)
T17 construct: purchased Millipore, Inc. (KinaseProfiler service)
Procedure, shortened: as §1

[18] = target: T18, JAK3 (Homo sapiens, UniProt P52333)
T18 construct: purchased Millipore, Inc. (KinaseProfiler service)
Procedure, shortened: as §1

[19] = target: T19, MAPKAP-K3 (Homo sapiens, UniProt Q16644)
T19 construct: purchased Millipore, Inc. (KinaseProfiler service)
Procedure, shortened: as §1

[20] = target: T20, MINK (Homo sapiens, UniProt Q8N4C8)
T20 construct: purchased Millipore, Inc. (KinaseProfiler service)
Procedure, shortened: as §1

[21] = target: T21, MLK1 (Homo sapiens, UniProt P80192)
T21 construct: purchased Millipore, Inc. (KinaseProfiler service)
Procedure, shortened: as §1

[22] = target: T22, MST1 (Homo sapiens, UniProt Q13043)
T22 construct: purchased Millipore, Inc. (KinaseProfiler service)
Procedure, shortened: as §1

[23] = target: T23, MYLK (Homo sapiens, UniProt Q15746)
T23 construct: purchased Millipore, Inc. (KinaseProfiler service)
Procedure, shortened: as §1

[24] = target: T24, NEK11 (Homo sapiens, UniProt Q8NG66)
T24 construct: purchased Millipore, Inc. (KinaseProfiler service)
Procedure, shortened: as §1

[25] = target: T25, NEK2 (Homo sapiens, UniProt P51955)
T25 construct: purchased Millipore, Inc. (KinaseProfiler service)
Procedure, shortened: as §1

[26] = target: T26, NEK3 (Homo sapiens, UniProt P51956)
T26 construct: purchased Millipore, Inc. (KinaseProfiler service)
Procedure, shortened: as §1

[27] = target: T27, NEK6 (Homo sapiens, UniProt Q9HC98)
T27 construct: purchased Millipore, Inc. (KinaseProfiler service)
Procedure, shortened: as §1

[28] = target: T28, NLK (Homo sapiens, UniProt Q9UBE8)
T28 construct: purchased Millipore, Inc. (KinaseProfiler service)
Procedure, shortened: as §1

[29] = target: T29, PAK4 (Homo sapiens, UniProt O96013)
T29 construct: purchased Millipore, Inc. (KinaseProfiler service)
Procedure, shortened: as §1

[30] = target: T30, PKCbetaI (Homo sapiens, UniProt P05771)
T30 construct: purchased Millipore, Inc. (KinaseProfiler service)
Procedure, shortened: as §1

[31] = target: T31, Pim-2 (Homo sapiens, UniProt Q9P1W9)
T31 construct: purchased Millipore, Inc. (KinaseProfiler service)
Procedure, shortened: as §1

[32] = target: T32, Plk3 (Homo sapiens, UniProt Q9H4B4)
T32 construct: purchased Millipore (KinaseProfiler service)
Procedure, shortened: as §1

[33] = target: T33, Ros (Homo sapiens, UniProt P08922)
T33 construct: purchased Millipore (KinaseProfiler service)
Procedure, shortened: as §1

[34] = target: T34, Rse (Homo sapiens, UniProt Q06418)
T34 construct: purchased Millipore (KinaseProfiler service)
Procedure, shortened: as §1

[35] = target: T35, Rsk2 (Homo sapiens, UniProt P51812)
T35 construct: purchased Millipore (KinaseProfiler service)
Procedure, shortened: as §1

[36] = target: T36, SGK2 (Homo sapiens, UniProt Q9HBY8)
T36 construct: purchased Millipore, Inc. (KinaseProfiler service)
Procedure, shortened: as §1

[37] = target: T37, SGK3 (Homo sapiens, UniProt Q96BR1)
T37 construct: purchased Millipore, Inc. (KinaseProfiler service)
Procedure, shortened: as §1

[38] = target: T38, TAO1 (Homo sapiens, UniProt Q7L7X3)
T38 construct: purchased Millipore, Inc. (KinaseProfiler service)
Procedure, shortened: as §1

[39] = target: T39, TAO2 (Homo sapiens, UniProt Q9UL54)
T39 construct: purchased Millipore, Inc. (KinaseProfiler service)
Procedure, shortened: as §1

[40] = target: T40, TLK2 (Homo sapiens, UniProt Q86UE8)
T40 construct: purchased Millipore, Inc. (KinaseProfiler service)
Procedure, shortened: as §1

[41] = target: T41, p38beta (Homo sapiens, UniProt Q15759)
T41 construct: purchased Millipore, Inc. (KinaseProfiler service)
Procedure, shortened: as §1

T37 sequence (Q96BR1 whole entry): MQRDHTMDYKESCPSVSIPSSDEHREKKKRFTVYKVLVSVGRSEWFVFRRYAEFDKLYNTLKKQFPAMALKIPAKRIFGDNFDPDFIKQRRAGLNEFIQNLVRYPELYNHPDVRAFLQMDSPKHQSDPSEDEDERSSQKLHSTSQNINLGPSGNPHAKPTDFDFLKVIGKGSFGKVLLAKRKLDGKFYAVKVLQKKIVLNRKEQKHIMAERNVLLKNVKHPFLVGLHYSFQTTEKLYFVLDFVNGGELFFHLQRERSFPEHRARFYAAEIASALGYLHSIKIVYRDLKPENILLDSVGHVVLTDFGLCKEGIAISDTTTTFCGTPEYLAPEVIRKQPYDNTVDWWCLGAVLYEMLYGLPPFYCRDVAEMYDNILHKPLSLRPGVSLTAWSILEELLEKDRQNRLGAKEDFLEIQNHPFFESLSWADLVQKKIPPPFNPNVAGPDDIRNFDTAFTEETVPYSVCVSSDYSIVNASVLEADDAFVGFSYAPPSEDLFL
T22 sequence (Q13043 whole entry): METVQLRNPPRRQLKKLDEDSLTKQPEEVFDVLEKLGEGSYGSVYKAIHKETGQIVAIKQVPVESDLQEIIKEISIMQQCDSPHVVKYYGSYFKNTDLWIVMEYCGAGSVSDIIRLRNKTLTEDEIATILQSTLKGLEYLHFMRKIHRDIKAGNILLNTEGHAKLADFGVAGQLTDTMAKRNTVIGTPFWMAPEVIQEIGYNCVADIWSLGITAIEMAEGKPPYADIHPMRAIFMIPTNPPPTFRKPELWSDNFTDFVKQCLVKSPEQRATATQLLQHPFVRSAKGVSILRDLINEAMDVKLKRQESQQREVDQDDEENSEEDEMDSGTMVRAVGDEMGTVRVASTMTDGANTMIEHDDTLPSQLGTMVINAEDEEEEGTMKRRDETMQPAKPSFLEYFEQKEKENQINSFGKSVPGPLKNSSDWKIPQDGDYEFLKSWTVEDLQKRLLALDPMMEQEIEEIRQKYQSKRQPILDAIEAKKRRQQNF
T41 sequence (Q15759 whole entry): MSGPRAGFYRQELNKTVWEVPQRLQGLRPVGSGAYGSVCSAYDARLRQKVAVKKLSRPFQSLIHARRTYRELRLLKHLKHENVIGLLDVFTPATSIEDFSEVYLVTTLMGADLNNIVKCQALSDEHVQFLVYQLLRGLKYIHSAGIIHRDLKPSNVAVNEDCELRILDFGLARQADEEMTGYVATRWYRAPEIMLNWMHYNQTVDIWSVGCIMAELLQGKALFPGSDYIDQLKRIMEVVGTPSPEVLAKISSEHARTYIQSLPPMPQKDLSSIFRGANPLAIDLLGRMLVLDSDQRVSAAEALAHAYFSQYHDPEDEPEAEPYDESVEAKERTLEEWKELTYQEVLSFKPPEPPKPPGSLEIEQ
T7 sequence (P19784 whole entry): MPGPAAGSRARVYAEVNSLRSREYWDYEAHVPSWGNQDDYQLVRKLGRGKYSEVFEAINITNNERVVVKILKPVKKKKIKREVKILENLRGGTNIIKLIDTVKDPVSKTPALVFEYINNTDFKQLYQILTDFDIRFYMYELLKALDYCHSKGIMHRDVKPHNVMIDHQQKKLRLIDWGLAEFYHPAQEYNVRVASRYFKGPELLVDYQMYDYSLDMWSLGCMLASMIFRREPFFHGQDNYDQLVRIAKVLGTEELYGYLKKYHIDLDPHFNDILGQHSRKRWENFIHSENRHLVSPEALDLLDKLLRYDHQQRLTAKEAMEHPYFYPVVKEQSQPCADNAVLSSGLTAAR
T35 sequence (P51812 whole entry): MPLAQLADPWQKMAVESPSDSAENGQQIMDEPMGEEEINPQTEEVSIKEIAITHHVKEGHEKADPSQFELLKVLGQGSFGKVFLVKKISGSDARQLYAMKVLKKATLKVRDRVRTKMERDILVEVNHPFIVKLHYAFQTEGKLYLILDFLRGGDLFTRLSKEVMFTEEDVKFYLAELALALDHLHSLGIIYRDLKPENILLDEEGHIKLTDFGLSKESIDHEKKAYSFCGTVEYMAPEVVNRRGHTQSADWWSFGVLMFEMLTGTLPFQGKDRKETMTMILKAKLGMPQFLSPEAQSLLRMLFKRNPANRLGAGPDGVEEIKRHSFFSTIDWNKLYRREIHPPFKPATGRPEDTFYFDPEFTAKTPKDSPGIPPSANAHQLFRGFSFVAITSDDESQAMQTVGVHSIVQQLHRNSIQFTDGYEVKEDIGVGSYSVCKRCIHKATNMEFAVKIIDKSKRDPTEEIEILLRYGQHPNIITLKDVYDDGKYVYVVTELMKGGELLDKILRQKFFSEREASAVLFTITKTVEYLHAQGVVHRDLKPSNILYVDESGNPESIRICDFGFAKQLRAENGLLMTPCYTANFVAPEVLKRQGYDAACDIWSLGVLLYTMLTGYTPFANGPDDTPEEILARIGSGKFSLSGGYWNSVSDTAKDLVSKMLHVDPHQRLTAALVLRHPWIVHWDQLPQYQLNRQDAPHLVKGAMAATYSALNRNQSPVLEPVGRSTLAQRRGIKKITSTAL
T21 sequence (P80192 whole entry): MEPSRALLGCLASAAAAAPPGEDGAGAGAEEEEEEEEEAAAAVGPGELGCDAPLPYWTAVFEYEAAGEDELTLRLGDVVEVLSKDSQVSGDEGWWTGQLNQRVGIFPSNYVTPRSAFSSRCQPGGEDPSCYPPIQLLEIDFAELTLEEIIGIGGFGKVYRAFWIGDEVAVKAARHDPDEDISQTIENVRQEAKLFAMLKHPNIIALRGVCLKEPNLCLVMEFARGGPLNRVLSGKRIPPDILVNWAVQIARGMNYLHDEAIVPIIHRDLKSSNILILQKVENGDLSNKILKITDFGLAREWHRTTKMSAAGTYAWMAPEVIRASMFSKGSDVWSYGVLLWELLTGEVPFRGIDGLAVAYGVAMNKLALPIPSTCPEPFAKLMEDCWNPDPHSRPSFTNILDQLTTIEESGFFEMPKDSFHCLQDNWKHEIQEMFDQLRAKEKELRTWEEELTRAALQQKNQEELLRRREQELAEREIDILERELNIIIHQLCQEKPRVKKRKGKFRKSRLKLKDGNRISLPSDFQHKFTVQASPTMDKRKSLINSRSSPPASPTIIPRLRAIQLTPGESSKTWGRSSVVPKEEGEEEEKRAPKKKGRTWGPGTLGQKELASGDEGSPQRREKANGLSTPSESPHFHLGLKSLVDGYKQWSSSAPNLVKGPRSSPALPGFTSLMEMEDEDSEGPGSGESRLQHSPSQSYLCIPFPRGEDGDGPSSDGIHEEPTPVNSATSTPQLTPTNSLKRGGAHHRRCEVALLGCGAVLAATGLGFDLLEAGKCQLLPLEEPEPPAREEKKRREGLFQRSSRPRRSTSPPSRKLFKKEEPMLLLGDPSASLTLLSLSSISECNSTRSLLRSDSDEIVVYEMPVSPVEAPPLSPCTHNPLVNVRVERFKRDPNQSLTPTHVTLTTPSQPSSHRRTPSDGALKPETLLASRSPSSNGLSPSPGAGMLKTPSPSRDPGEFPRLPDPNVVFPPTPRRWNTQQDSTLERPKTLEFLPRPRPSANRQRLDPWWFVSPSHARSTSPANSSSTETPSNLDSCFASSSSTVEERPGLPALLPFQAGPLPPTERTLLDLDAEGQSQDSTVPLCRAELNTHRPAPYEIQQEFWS
T28 sequence (Q9UBE8 whole entry): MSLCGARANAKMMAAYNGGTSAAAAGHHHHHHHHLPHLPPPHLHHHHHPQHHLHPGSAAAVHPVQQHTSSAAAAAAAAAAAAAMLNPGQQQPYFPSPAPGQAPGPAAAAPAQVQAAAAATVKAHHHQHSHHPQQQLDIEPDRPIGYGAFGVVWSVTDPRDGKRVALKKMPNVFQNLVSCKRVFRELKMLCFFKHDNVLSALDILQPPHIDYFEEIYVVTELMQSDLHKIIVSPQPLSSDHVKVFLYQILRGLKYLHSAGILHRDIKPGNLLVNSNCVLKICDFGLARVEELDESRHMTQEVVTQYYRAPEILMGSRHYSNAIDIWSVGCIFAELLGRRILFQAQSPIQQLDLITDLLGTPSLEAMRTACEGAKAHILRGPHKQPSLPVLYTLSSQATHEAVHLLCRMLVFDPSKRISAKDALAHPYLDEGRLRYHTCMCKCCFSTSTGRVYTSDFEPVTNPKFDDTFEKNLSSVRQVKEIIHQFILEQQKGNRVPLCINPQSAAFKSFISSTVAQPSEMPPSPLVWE
T27 sequence (Q9HC98 whole entry): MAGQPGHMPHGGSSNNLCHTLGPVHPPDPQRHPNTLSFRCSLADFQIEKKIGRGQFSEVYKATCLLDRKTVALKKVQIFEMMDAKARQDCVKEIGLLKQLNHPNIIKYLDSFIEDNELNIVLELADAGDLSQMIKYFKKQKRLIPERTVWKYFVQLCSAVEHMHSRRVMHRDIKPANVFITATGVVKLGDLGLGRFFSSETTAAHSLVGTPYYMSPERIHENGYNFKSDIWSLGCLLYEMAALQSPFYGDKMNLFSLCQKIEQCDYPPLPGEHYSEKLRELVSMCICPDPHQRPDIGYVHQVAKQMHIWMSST
T8 sequence (Q09013 whole entry): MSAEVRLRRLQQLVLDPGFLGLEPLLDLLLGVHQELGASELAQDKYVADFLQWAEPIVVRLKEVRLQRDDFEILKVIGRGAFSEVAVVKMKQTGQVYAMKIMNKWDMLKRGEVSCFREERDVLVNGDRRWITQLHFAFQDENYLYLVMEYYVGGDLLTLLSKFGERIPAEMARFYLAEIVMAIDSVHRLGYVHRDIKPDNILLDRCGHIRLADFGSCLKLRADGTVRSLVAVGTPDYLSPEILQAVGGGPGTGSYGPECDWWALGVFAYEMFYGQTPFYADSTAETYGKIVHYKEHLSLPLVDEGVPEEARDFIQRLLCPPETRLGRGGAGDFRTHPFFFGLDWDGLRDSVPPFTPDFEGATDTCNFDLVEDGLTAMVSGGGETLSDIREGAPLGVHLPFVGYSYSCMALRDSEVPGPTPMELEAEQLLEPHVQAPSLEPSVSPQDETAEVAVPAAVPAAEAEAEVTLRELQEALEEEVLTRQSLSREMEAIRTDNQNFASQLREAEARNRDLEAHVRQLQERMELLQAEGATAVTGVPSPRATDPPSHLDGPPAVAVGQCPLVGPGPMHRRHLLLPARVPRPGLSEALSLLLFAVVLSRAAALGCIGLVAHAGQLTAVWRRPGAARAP

Avg. POC [1]: 114 POC
Avg. POC [2]: 105 POC
Avg. POC [3]: 109.5 POC
Avg. POC [4]: 138 POC
Avg. POC [5]: 109 POC
Avg. POC [6]: 109 POC
Avg. POC [7]: 104 POC
Avg. POC [8]: 105.5 POC
Avg. POC [9]: 107.5 POC
Avg. POC [10]: 123 POC
Avg. POC [11]: 85 POC
Avg. POC [12]: 107 POC
Avg. POC [13]: 97.5 POC
Avg. POC [14]: 101 POC
Avg. POC [15]: 110.5 POC
Avg. POC [16]: 109.5 POC
Avg. POC [17]: 100 POC
Avg. POC [18]: 115 POC
Avg. POC [19]: 105 POC
Avg. POC [20]: 99 POC
Avg. POC [21]: 100 POC
Avg. POC [22]: 89.5 POC
Avg. POC [23]: 110 POC
Avg. POC [24]: 109.5 POC
Avg. POC [25]: 91 POC
Avg. POC [26]: 103 POC
Avg. POC [27]: 92.5 POC
Avg. POC [28]: 99 POC
Avg. POC [29]: 97.5 POC
Avg. POC [30]: 101 POC
Avg. POC [31]: 122.5 POC
Avg. POC [32]: 99.5 POC
Avg. POC [33]: 95.5 POC
Avg. POC [34]: 102.5 POC
Avg. POC [35]: 110.5 POC
Avg. POC [36]: 105 POC
Avg. POC [37]: 109 POC
Avg. POC [38]: 106 POC
Avg. POC [39]: 104.5 POC
Avg. POC [40]: 105 POC
Avg. POC [41]: 98.5 POC
Structure (SMILES): COCCN1C[C@@H](NC(=O)Nc2c(-c3ccccc3)nc3c(C)nccn23)[C@H](c2ccc(F)c(F)c2)C1 [Example 20, 1-((3S,4R)-4-(3,4-difluorophenyl)-1-(2-methoxyethyl)pyrrolidin-3-yl)-3-(8-methyl-2-phenylimidazo[1,2-a]pyrazin-3-yl)urea]
